This note sets out measurements from patent US20210284621A1 (priority 2018, published 2021).

Experiment [1] has as its target CB1 receptor (Homo sapiens, UniProt P21554). Briefly: CB1 competitive radioligand binding assay ([3H] SR141716A). The arrangement: expressed in transfected cells; host or cells: Chem-1 cells. Particulars: for inhibition at 0.5 µM: 0.5 μM compound, 2.0 nM [3H] SR141716A, 90 min 37° C. On the procedure:
(§1) J Med Chem. 41(26): 5177-5187 (1998); and Munro S., et al. Molecular characterization of a peripheral receptor for cannabinoids. Nature 365:61-65 (1993).
CB1 Radioligand Binding Assay: A compound of the invention (0.5 μM in 1% DMSO) was incubated with Chem-1 cells expressing human recombinant CB1 receptor in buffer (50 mM HEPES, pH 7.4, 5 mM MgCl2, 1 mM CaCl2, 0.2% BSA) for 90 minutes at 37° C. in the presence of 2.0 nM [H^3] SR141716A (CB1 radioligand). % Inhibition was determined as a function of radioligand binding to the CB1 receptor.

For experiment [2], the target named is CB2 receptor (Homo sapiens, UniProt P34972). In words: CB2 competitive radioligand binding assay ([3H] WIN-55,212-2). The arrangement: expressed in transfected cells; host or cells: CHO-K1 cells. Particulars: for inhibition at 0.05 µM: 0.05 μM compound, 2.4 nM [3H] WIN-55,212-2, 90 min 37° C. As to the method:
as §1
CB2 Radioligand Binding Assay: A compound of the invention (0.05 μM in 1% DMSO) was incubated with CHO-K1 cells expressing human recombinant CB2 receptor in buffer (20 mM HEPES, pH 7.0, 0.5% BSA) for 90 minutes at 37° C. in the presence of 2.4 nM [H^3] WIN-55,212-2 (CB2 radioligand). % Inhibition was determined as a function of radioligand binding to the […].

In experiment [3] the test system is LPS-induced PBMCs. In words: Inflammatory cytokine release from LPS-induced PBMCs (Luminex). The format is cell-based, human. To be noted: fold change from LPS-treated PBMCs, compounds 10 μM (DEX 1 μg/ml) 2 h, then LPS 0.1 μg/ml 24 h, negative = reduced. On the procedure:
Compounds of the invention were assayed for their effect on inflammatory cytokine release from lipopolysaccharides (LPS)-induced PBMCs, isolated from a human blood sample, the results of which are provided in Table 7 as fold change. Exemplary methods for quantifying secretion of inflammatory cytokines in PBMCs are known in the art, for example, as described in Hailer et al., Infection and Immunity. 68(2):752-759 (2000); and Merlini et al., Frontiers in Immunology. 7:614 (2016); each of which is incorporated herein by reference with respect to methods for evaluating cytokine release in PBMCs.
In brief, human blood samples from healthy volunteers were collected and PBMCs were isolated. PBMCs were cultured and each compound was assayed in triplicate at a final concentration of 10 μM for 2 hours. 1 μg/ml dexamethasone (DEX) served as a positive control. LPS was added at a final concentration of 0.1 μg/ml and further incubated for 24 hours. At the end of the incubation, the supernatants were collected and the levels of a panel of secreted cytokines were measured by a Human Magnetic Luminex® assay (R&D). The results in Table 7 are presented as a fold change from LPS-treated PBMCs. Reduced levels are expressed by negative values. OOR denotes values that are out of the standard curve range for the specific cytokine and thus, could not be accurately measured. Cytotoxicity was also determined. Compounds with cytotoxicity ≥50% was considered cytotoxic. Baseline cytotoxicity of untreated PBMCs was 17% and all compounds presented in Table 7 induced cytotoxicity below 25%.

Where [4] appears, read: OOR = out of standard curve range.

CB2 receptor, sequence (P34972 whole entry): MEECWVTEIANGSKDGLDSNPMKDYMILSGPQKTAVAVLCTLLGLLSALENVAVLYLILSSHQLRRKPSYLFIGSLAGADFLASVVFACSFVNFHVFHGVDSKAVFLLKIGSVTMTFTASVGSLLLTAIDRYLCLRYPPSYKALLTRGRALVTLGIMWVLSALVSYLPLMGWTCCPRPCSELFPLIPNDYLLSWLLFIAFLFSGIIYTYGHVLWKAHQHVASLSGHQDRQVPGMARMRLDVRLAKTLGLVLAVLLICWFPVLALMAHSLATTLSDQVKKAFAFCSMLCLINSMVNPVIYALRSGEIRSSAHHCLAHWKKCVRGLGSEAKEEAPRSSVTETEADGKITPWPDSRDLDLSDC
CB1 receptor, sequence (P21554 whole entry): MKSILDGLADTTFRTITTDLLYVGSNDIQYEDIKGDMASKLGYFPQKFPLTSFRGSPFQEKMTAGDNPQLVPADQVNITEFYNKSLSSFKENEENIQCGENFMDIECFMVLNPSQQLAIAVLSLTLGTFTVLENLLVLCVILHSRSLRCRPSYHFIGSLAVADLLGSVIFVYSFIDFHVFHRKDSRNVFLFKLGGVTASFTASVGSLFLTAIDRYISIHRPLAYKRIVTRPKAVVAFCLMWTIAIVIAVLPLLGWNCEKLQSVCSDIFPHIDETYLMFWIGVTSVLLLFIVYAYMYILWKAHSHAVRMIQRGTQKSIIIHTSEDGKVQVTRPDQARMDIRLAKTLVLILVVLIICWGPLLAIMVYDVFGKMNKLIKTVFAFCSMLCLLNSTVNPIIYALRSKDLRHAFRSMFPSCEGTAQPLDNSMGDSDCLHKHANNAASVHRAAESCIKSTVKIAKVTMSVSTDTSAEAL

For orientation: inhibition means the change of the read-out against control, counted positive when it falls. Regarding `CCCCCCC(C)(C)c1cc(O)c2c(c1)OC(C)(C)[C@@H]1CC=C(C(N)=O)C[C@@H]21` [Compound 4, (6aR,10aR)-1-Hydroxy-6,6-dimethyl-3-(2-methyloctan-2-yl)-6a,7,10,10a-tetrahydro-6H-benzo[c]chromene-9-carboxamide], in experiment [1], the inhibition at 0.5 µM is 70%. Besides, the inhibition at 0.05 µM in experiment [2] came to 57%.

Usually Ki stands for a measure of affinity in units of concentration, obtained from inhibition or displacement. High values mean a looser hold on the target, low ones a stronger hold on the target. Consider `CCCCCCC(C)(C)c1cc(OC(C)=O)c2c(c1)OC(C)(C)[C@@H]1CC=C(C#N)C[C@@H]21` [Compound 19, (6aR,10aR)-9-Cyano-6,6-dimethyl-3-(2-methyloctan-2-yl)-6a,7,10,10a-tetrahydro-6H-benzo[c]chromen-1-yl acetate], for which, in experiment [1], the inhibition constant Ki was found to be 6.8 nM and the inhibition at 0.5 µM stood at 111%. For the same compound, in experiment [2], the Ki came out at 1.9 nM and the inhibition at 0.05 µM came to 115%. Further, the “Fold Selectivity (CB1/CB2)” value in experiment [2] (Table 2, ratio of Ki CB1/CB2) was 4.

Turning to `CCCCCCC(C)(C)c1cc(O)c2c(c1)OC(C)(C)[C@@H]1CC=C(C(=O)N[C@@H](C)CCO)C[C@@H]21` [Compound 98, (6aR,10aR)-1-hydroxy-N—((S)-4-hydroxybutan-2-yl)-6,6-dimethyl-3-(2-methyloctan-2-yl)-6a,7,10,10a-tetrahydro-6H-benzo[c]chromene-9-carboxamide], the inhibitory constant (Ki) in experiment [1] turned out to be 320 nM; in experiment [2] it was 10 nM. In addition, in experiment [2] (Table 3, ratio of Ki CB1/CB2), the “Fold Selectivity (CB1/CB2)” value is given as 32.0.

In the case of `CCCCCCC(C)(C)c1cc(O)c2c(c1)OC(C)(C)[C@@H]1CC=C(C(=O)NC#N)C[C@@H]21` [Compound 106, (6aR,10aR)-N-cyano-1-hydroxy-6,6-dimethyl-3-(2-methyloctan-2-yl)-6a,7,10,10a-tetrahydro-6H-benzo[c]chromene-9-carboxamide], the Ki stood at 803 nM in experiment [1] and 810 nM in experiment [2]. Also, the “Fold Selectivity (CB1/CB2)” value in experiment [2] (Table 3, ratio of Ki CB1/CB2) was found to be 1.0.

With `CCCCCCC(C)(C)c1cc(O)c2c(c1)OC(C)(C)[C@@H]1CC=C(C(=O)NC34CC5CC(CC(C5)C3)C4)C[C@@H]21` [Compound 42, (6aR,10aR)-N-(adamantan-1-yl)-1-hydroxy-6,6-dimethyl-3-(2-methyloctan-2-yl)-6a,7,10,10a-tetrahydro-6H-benzo[c]chromene-9-carboxamide], the Ki in experiment [1] stood at 59.5 nM; in experiment [2], 175 nM. Further, in experiment [2] (Table 3, ratio of Ki CB1/CB2), the “Fold Selectivity (CB1/CB2)” value is reported as 0.3.

For the compound `CCCCCCC(C)(C)c1cc(O)c2c(c1)OC(C)(C)[C@@H]1CC=C(C(=O)N[C@H]3CC[C@H](O)CC3)C[C@@H]21` [Compound 17, (6aR,10aR)-1-Hydroxy-N-(trans-4-hydroxycyclohexyl)-6,6-dimethyl-3-(2-methyloctan-2-yl)-6a,7,10,10a-tetrahydro-6H-benzo[c]chromene-9-carboxamide], in experiment [1], the inhibition at 0.5 µM is 23%. Moreover, in experiment [2], the inhibition at 0.05 µM was determined as 8%.

Turning to `CCCCCCCC(C)(C)c1cc(O)c2c(c1)OC(C)(C)[C@@H]1CC=C(C(=O)O)C[C@@H]21` [Compound 9, (6aR,10aR)-1-Hydroxy-6,6-dimethyl-3-(2-methylnonan-2-yl)-6a,7,10,10a-tetrahydro-6H-benzo[c]chromene-9-carboxylic acid], the inhibition at 0.5 µM in experiment [1] is -8%. In addition, the inhibition at 0.05 µM in experiment [2] was 18%.

For the compound `CCCCCCC(C)(C)c1cc(O)c2c(c1)OC(C)(C)[C@@H]1CC=C(C(=O)Oc3ccc(C(N)=S)cc3)C[C@@H]21` [Compound 10, 4-Carbamothioylphenyl (6aR,10aR)-1-hydroxy-6,6-dimethyl-3-(2-methyloctan-2-yl)-6a,7,10,10a-tetrahydro-6H-benzo[c]chromene-9-carboxylate], in experiment [1], the inhibition at 0.5 µM is 7%. Moreover, the inhibition at 0.05 µM in experiment [2] was 11%.

Regarding `CCCCCCC(C)(C)c1cc(OC)c2c(c1)OC(C)(C)[C@@H]1CC=C(C(=O)NCCO)C[C@@H]21` [Compound 7, (6aR,10aR)-N-(2-Hydroxyethyl)-1-methoxy-6,6-dimethyl-3-(2-methyloctan-2-yl)-6a,7,10,10a-tetrahydro-6H-benzo[c]chromene-9-carboxamide], the inhibition at 0.5 µM in experiment [1] was 21%. Also, in experiment [2], the inhibition at 0.05 µM was found to be 11%.

In experiment [3], `C[C@@H]1C[C@H]2[C@@H]3CCC4=CC(=O)C=C[C@]4(C)[C@@]3(F)[C@@H](O)C[C@]2(C)[C@@]1(O)C(=O)CO` [DEX, dexamethasone, reference compound] registered an IL17A of −1.5 fold change, an IL-1β of −3.8 fold change, an IL-4 of −1.5 fold change and an IL-6 of −3.9 fold change. Also, in experiment [3], the IL-8 is −1.0 fold change, the IL-10 is reported as −2.0 fold change, the MCP-1 is given as −1.7 fold change and the TNFα is recorded as −6.0 fold change. Further, in experiment [3] (setting [4]), the “IL-12 (p70)” value was −4.5 fold change and the L-31 is −1.6 fold change.

On to `CCCCCCC(C)(C)c1cc(O)c2c(c1)OC(C)(C)[C@@H]1CC=C(C(=O)NC34CC5CC(CC(O)(C5)C3)C4)C[C@@H]21` [Compound 43, (6aR,10aR)-1-hydroxy-N-(3-hydroxyadamantan-1-yl)-6,6-dimethyl-3-(2-methyloctan-2-yl)-6a,7,10,10a-tetrahydro-6H-benzo[c]chromene-9-carboxamide], for which the Ki is 891 nM in experiment [1] and 75.6 nM in experiment [2]. Further, the “Fold Selectivity (CB1/CB2)” value in experiment [2] (Table 3, ratio of Ki CB1/CB2) turned out to be 11.8.

`CCCCCCC(C)(C)c1c(Cl)c(O)c2c(c1Cl)OC(C)(C)[C@@H]1CC=C(C(=O)O)C[C@@H]21` [Compound 113, (6aR,10aR)-2,4-dichloro-1-hydroxy-6,6-dimethyl-3-(2-methyloctan-2-yl)-6a,7,10,10a-tetrahydro-6H-benzo[c]chromene-9-carboxylic acid]: the Ki in experiment [1] and in experiment [2] was more than 3000 nM each time.

As to `CC(C)(CCCCCC(=O)O)c1cc(O)c2c(c1)OC(C)(C)[C@@H]1CC=C(C(=O)O)C[C@@H]21` [Compound 111, (6aR,10aR)-3-(7-carboxy-2-methylheptan-2-yl)-1-hydroxy-6,6-dimethyl-6a,7,10,10a-tetrahydro-6H-benzo[c]chromene-9-carboxylic acid], the Ki in experiment [1] and in experiment [2] was more than 3000 nM each time.

Take `CCCCCCC(C)(C)c1cc(O)c2c(c1)OC(C)(C)[C@@H]1CC=C(C(=O)N[C@H]3CC[C@@H](O)CC3)C[C@@H]21` [Compound 18, (6aR,10aR)-1-Hydroxy-N-(cis-4-hydroxycyclohexyl)-6,6-dimethyl-3-(2-methyloctan-2-yl)-6a,7,10,10a-tetrahydro-6H-benzo[c]chromene-9-carboxamide]: in experiment [1], the inhibition at 0.5 µM worked out at 5%. The inhibition at 0.05 µM in experiment [2] was 26%.

Turning to `CCCC(C)(C)c1cc(O)c2c(c1)OC(C)(C)[C@@H]1CC=C(C(=O)NC(C)(C)C(F)(F)F)C[C@@H]21` [Compound 101], the Ki in experiment [1] is more than 5000 nM; in experiment [2], 84 nM. The “Fold Selectivity (CB1/CB2)” value in experiment [2] (Table 3, ratio of Ki CB1/CB2) is recorded as more than 60.
